Assay results: article PMC5207785, “Arginine and Lysine Transporters Are Essential for Trypanosoma brucei” (PLoS ONE, 2017)

Key:
TbAAT5-3 [1] = target: T1, TbAAT5-3 (Trypanosoma brucei, UniProt Q57UX9); assay: competition of L-[3H]-arginine uptake in S. cerevisiae […]c; type: cell-based; conditions: 500 µM, 50 μM L-arginine, pH 6.0
T1 construct: gene Tb08.4A8.362; full-length ORF (1377 bp incl. stop) in pDR197, untagged, expressed in S. cerevisiae 21.983c; nt 96 resolved as C (Asp)
T1 sequence (Q57UX9 1-458): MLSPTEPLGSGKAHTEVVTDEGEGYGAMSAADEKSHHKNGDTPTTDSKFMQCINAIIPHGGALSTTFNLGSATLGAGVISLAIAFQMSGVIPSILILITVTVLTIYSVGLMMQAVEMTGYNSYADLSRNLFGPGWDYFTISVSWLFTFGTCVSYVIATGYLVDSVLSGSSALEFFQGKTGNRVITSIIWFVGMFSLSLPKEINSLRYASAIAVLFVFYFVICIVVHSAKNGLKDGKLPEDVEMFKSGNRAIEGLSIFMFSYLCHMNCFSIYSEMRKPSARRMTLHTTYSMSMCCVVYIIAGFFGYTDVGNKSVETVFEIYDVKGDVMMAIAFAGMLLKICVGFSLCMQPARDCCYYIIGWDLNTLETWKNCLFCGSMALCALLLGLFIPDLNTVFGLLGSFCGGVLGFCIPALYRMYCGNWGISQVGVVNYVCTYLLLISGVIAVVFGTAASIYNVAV

TbAAT5-3 [2] = target: T1, TbAAT5-3; assay: as above; type: cell-based; conditions: 5000 µM; 50 μM L-arginine; pH 6.0
TbAAT16-1 = target: T2, TbAAT16-1 (Trypanosoma brucei, UniProt Q381K2); assay: competition of L-[3H]-lysine uptake in S. cerevisiae […]Δ7AA; type: cell-based; conditions: 500 µM; 50 μM L-lysine; pH 4.5
T2 construct: gene Tb11.01.7500; full-length ORF (1389 bp incl. stop) in pDR197, untagged, expressed in S. cerevisiae 22Δ7AA; syntenic TREU927 gene Tb927.11.15840
T2 sequence (Q381K2 1-462): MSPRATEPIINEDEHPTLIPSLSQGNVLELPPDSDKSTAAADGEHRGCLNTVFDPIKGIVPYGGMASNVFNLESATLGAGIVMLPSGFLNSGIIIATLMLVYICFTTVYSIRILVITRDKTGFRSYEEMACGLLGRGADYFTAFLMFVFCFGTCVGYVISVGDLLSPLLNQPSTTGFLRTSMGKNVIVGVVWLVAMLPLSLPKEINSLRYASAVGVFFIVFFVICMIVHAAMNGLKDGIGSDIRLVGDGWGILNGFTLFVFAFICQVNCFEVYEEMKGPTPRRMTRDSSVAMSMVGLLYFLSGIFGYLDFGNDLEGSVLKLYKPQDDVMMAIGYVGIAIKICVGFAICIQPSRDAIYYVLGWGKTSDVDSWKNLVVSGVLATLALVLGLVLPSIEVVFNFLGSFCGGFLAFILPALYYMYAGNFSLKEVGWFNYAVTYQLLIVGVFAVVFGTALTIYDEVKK

[3] = substrate: NCCCC[C@H](N)C(=O)O; assay: cells, lysate or membranes; conditions: labelled compound, 30 °C, 100 mM glucose, empty-vector background subtracted, pH of this assay not given
[4] = substrate: N=C(N)NCCC[C@H](N)C(=O)O; assay: cells, lysate or membranes; type: cell-based, Trypanosoma brucei; conditions: labelled compound, 30 °C, 100 mM glucose, empty-vector background subtracted, pH of this assay not given

## N=C(N)NCCC[C@H](N)C(=O)Nc1ccc2ccccc2c1 [Arginine-β-naphthylamide]
TbAAT5-3 [1]; unspecific effect of the amphipathic compound not excluded
  L-[^3H]-arginine uptake rate (%) / 10x: 69 ± 6.6%

## COC(=O)[C@@H](N)CCCNC(=N)N [Arginine methyl ester]
TbAAT5-3 [2]
  L-[^3H]-arginine uptake rate (%) / 100x: 67.6 ± 10.3%

## NCCSC[C@H](N)C(=O)O [Thialysine, S-(2-aminoethyl)-L-cysteine]
TbAAT16-1
  L-[^3H]-lysine uptake rate (%) / 10x: 35.3 ± 1.8%

## CCOC(=O)[C@@H](N)CCCNC(=N)N [Arginine ethyl ester]
TbAAT5-3 [2]
  L-[^3H]-arginine uptake rate (%) / 100x: 72.5 ± 8.7%

## N=C(N)NOCC[C@H](N)C(=O)O [Canavanine]
TbAAT5-3 [1]
  L-[^3H]-arginine uptake rate (%) / 10x: 38.5 ± 4.5%

## NCCCC[C@H](N)C(=O)O [L-lysine]
TbAAT5-3 [2]
  L-[^3H]-arginine uptake rate (%) / 100x: 56.5 ± 8.2%

## N=C(N)NCCCC[C@H](N)C(=O)O [Homoarginine]
TbAAT5-3 [1]
  L-[^3H]-arginine uptake rate (%) / 10x: 25.6 ± 4.2%

## NCCCC[C@H](NC(=O)OCC1c2ccccc2-c2ccccc21)C(=O)O [Fmoc-Lysine, N-α-(9-fluorenylmethyloxycarbonyl)-L-lysine]
TbAAT16-1
  L-[^3H]-lysine uptake rate (%) / 10x: 57.6 ± 6.9%

B1: TbAAT16-1 (Trypanosoma brucei brucei TREU927) (protein)
chain: MSPRATEPIINEDEHPTLIPSLSQGNVLELPPDSDKSTAAADGEHRGCLNTVFDPIKGIVPYGGMASNVFNLESATLGAGIVMLPSGFLNSGIIIATLMLVYICFTTVYSIRILVITRDKTGFRSYEEMACGLLGRGADYFTAFLMFVFCFGTCVGYVISVGDLLSPLLNQPSTTGFLRTSMGKNVIVGVVWLVAMLPLSLPKEINSLRYASAVGVFFIVFFVICMIVHAAMNGLKDGIGSDIRLVGDGWGILNGFTLFVFAFICQVNCFEVYEEMKGPTPRRMTRDSSVAMSMVGLLYFLSGIFGYLDFGNDLEGSVLKLYKPQDDVMMAIGYVGIAIKICVGFAICIQPSRDAIYYVLGWGKTSDVDSWKNLVVSGVLATLALVLGLVLPSIEVVFNFLGSFCGGFLAFILPALYYMYAGNFSLKEVGWFNYAVTYQLLIVGVFAVVFGTALTIYDEVKK
[3]
  Km: 4.3 ± 0.5 µM

B2: TbAAT5-3 (Trypanosoma brucei brucei TREU927) (protein)
chain: MLSPTEPLGSGKAHTEVVTDEGEGYGAMSAADEKSHHKNGDTPTTDSKFMQCINAIIPHGGALSTTFNLGSATLGAGVISLAIAFQMSGVIPSILILITVTVLTIYSVGLMMQAVEMTGYNSYADLSRNLFGPGWDYFTISVSWLFTFGTCVSYVIATGYLVDSVLSGSSALEFFQGKTGNRVITSIIWFVGMFSLSLPKEINSLRYASAIAVLFVFYFVICIVVHSAKNGLKDGKLPEDVEMFKSGNRAIEGLSIFMFSYLCHMNCFSIYSEMRKPSARRMTLHTTYSMSMCCVVYIIAGFFGYTDVGNKSVETVFEIYDVKGDVMMAIAFAGMLLKICVGFSLCMQPARDCCYYIIGWDLNTLETWKNCLFCGSMALCALLLGLFIPDLNTVFGLLGSFCGGVLGFCIPALYRMYCGNWGISQVGVVNYVCTYLLLISGVIAVVFGTAASIYNVAV
notes: full-length ORF (1377 bp incl. stop) in pDR197, untagged, expressed in S. cerevisiae 21.983c; nt 96 resolved as C (Asp)
[4]
  Km: 3.6 ± 0.4 µM
